Results from PubChem BioAssay AID1845198 (Molecular Pharmacology Branch, DTP, NCI, 2023).

Tested on: 425362-245-T-J1 tumor spheroids, viability % test/control
Test: Anticancer human tumor 425362-245-T-J1 patient-derived melanoma cell line growth inhibition
Conditions: spheroids with HUVEC and MSC; for IC50: curve of first compound; for viability, T/C: stronger effect = lower value
Excerpt: Multicellular complex tumor spheroid response to DNA repair inhibitors in combination with DNA-damaging drugs
This study explores the anticancer activities of DNA-damaging drugs and inhibitors of DNA damage repair, both as single agents and in combinations. Complex tumor spheroids comprised of malignant cells, endothelial cells and mesenchymal stem cells served as an in vitro model for human solid tumors. This model system incorporates physiologically relevant features and patient-derived or established malignant cell lines with clinically relevant genetic alterations from many tumor types. Twenty-six patient-derived or established malignant cell lines were evaluated representing sarcoma, melanoma, small cell lung cancer (SCLC), non-small cell lung cancer (NSCLC), as well as bladder, ovarian and pancreatic cancers. The concentration ranges selected for each drug and investigational agent were based upon clinically achievable concentrations if the clinical Cmax of the agent was known.
Compounds. The drugs and compounds olaparib (NSC753686), talazoparib (NSC767125), berzosertib (NSC777718), elimusertib (NSC800525), nedisertib (NSC802822), VX-984 (NSC792969), AZD-1390 (NSC803789), temozolomide (NSC362856), topotecan (NSC609699), trabectedin (NSC813783), staurosporine (NSC755774), and gemcitabine (NSC613327) were obtained from the National Cancer Institute (NCI) Developmental Therapeutics Program Chemical Repository. The FDA-approved anticancer drug set is available from the Developmental Therapeutics Program at https://dtp.cancer.gov/organization/dscb/obtaining/available_plates.htm. […] The stock solutions were prepared in dimethyl sulfoxide (DMSO, Sigma-Aldrich, St. Louis, MO, cat. D2650) at 400-fold the tested concentration and stored at -70 degrees C. Prior to their use, the stock solutions were diluted in fresh medium and the final DMSO concentration in the assay was 0.25% (v/v). All drugs and investigational agents were tested over a range starting from a high concentration at or near the clinical Cmax and decreasing in half-log increments. If the clinical Cmax for an agent had not been determined, the highest concentration tested was 10 microM.
Cell Lines. The patient-derived cancer cell (PDC) lines: 156681-154-R-J1-PDC, 283228-195-R-J1-PDC, 287954-098-R-J1-PDC, 292921-168-R-J2-PDC, 349418-098-R-PDC, 425362-245-T-J1-PDC, 556581-035-R-J1-PDC, and BL0293-F563-PDC were received from the NCI Patient-Derived Models Repository (PDMR, https://pdmr.cancer.gov). The established cell lines HS-SY-2 (RRID:CVCL_8719), MPNST, and SYO-1 (RRID:CVCL_7146) were obtained from the Sloan Kettering Institute. The alveolar soft parts sarcoma cell line ASPS-1 (RRID:CVCL_S738) was established at the NCI and grown from internal seed stocks. The following established cell lines were purchased from the American Type Culture Collection (ATCC, Manassas, VA): G-401 (ATCC, cat. CRL-1441, RRID:CVCL_0270), SW982 (ATCC, cat. HTB-93, RRID:CVCL_1734), VA-ES-BJ (ATCC, cat. CRL-2138, RRID:CVCL_1785), NCI-H719 (ATCC, cat. CRL-5837, RRID:CVCL_1582), NCI-H196 (ATCC, cat. CRL-5823, RRID:CVCL_1509), NCI-H841 (ATCC, cat. CRL-5845, RRID:CVCL_1595), NCI-H1618 (ATCC, cat. CRL-5879, RRID:CVCL_1480), NCI-H1876 (ATCC, cat. CRL-5902, RRID:CVCL_1503), DMS 114 (ATCC, cat. CRL-2066; RRID:CVCL_1174), NCI-H211 (ATCC, cat. CRL-5824; RRID:CVCL_1529), and SW 1271 (ATCC, cat. CRL-2177, RRID:CVCL_1716). The small cell lung cancer cell line COR-L88 was purchased from Sigma-Aldrich (cat. 92031917-1VL, RRID:CVCL_1141). The non-small cell lung cancer cell lines NCI-H226 (RRID:CVCL_1544) and NCI-H322M (RRID:CVCL_1557) were established at the NCI and grown from internal seed stocks. Pooled donor human umbilical vein endothelial cells (HUVEC, Lonza, cat. CC-2519) and human mesenchymal stem cells (hMSC, Lonza, cat. PT-2501) were purchased from Lonza (Walkersville, MD).
Cell Culture. All cells were maintained in an incubator at 37 degrees C and 5% CO2 with 95% humidity. […]
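Further: spheroids exposed to agents for 7 days.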
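Wherever viability, T/C is given: 100% = DMSO vehicle control viability.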

`Cc1cc(C)c(CNC(=O)c2cc(-c3ccc(CN4CCOCC4)cc3)cc3c2cnn3C2CCCC2)c(=O)[nH]1` + CC[C@@]1(O)C(=O)OCc2c1cc1n(c2=O)Cc2cc3c(CN(C)C)c(O)ccc3nc2-1 showed an IC50 (second compound 0.003 µM) of 3.21 µM, an IC50 (second compound 0.00949 µM) of 1.96 µM and an IC50 (second compound 0.03 µM) of less than 0.0316 µM. The IC50 (second compound 0.0949 µM) was less than 0.0316 µM, the IC50 (second compound 0.3 µM) was less than 0.0316 µM and the viability, T/C (second compound 0.003 µM, first compound 0.0316 µM) was 103%. It also gave a viability, T/C (second compound 0.003 µM, first compound 0.1 µM) of 81.8%, a viability, T/C (second compound 0.003 µM, first compound 0.316 µM) of 84% and a viability, T/C (second compound 0.003 µM, first compound 1 µM) of 72.9%. The viability, T/C (second compound 0.003 µM, first compound 3.16 µM) was 53.1%, the viability, T/C (second compound 0.003 µM, first compound 10 µM) was 10.1% and the viability, T/C (second compound 0.00949 µM, first compound 0.0316 µM) was 81.9%. The viability, T/C (second compound 0.00949 µM, first compound 0.1 µM) was 75%, the viability, T/C (second compound 0.00949 µM, first compound 0.316 µM) was 79.8% and the viability, T/C (second compound 0.00949 µM, first compound 1 µM) was 54.1%. It also gave a viability, T/C (second compound 0.00949 µM, first compound 3.16 µM) of 45.2%, a viability, T/C (second compound 0.00949 µM, first compound 10 µM) of 16.8% and a viability, T/C (second compound 0.03 µM, first compound 0.0316 µM) of 32.9%. For the same compound, the viability, T/C (second compound 0.03 µM, first compound 0.1 µM) was 37.2%, the viability, T/C (second compound 0.03 µM, first compound 0.316 µM) was 35.6% and the viability, T/C (second compound 0.03 µM, first compound 1 µM) was 33.1%. It also gave a viability, T/C (second compound 0.03 µM, first compound 3.16 µM) of 11.7%, a viability, T/C (second compound 0.03 µM, first compound 10 µM) of 7.5% and a viability, T/C (second compound 0.0949 µM, first compound 0.0316 µM) of 6%. For the same compound, the viability, T/C (second compound 0.0949 µM, first compound 0.1 µM) was 6.44%, the viability, T/C (second compound 0.0949 µM, first compound 0.316 µM) was 4.34% and the viability, T/C (second compound 0.0949 µM, first compound 1 µM) was 5.8%. It also gave a viability, T/C (second compound 0.0949 µM, first compound 3.16 µM) of 5.25%, a viability, T/C (second compound 0.0949 µM, first compound 10 µM) of 6.46% and a viability, T/C (second compound 0.3 µM, first compound 0.0316 µM) of 1.9%. It also gave a viability, T/C (second compound 0.3 µM, first compound 0.1 µM) of 2.19%, a viability, T/C (second compound 0.3 µM, first compound 0.316 µM) of 2.16% and a viability, T/C (second compound 0.3 µM, first compound 1 µM) of 2.06%. For the same compound, the viability, T/C (second compound 0.3 µM, first compound 3.16 µM) was 2.3% and the viability, T/C (second compound 0.3 µM, first compound 10 µM) was 2.37%.

`Cc1sc2c(c1C)C(c1ccc(Cl)cc1)=NC(CC(=O)Nc1ccc(O)cc1)c1nnc(C)n1-2` (stereo not given) + CC[C@@]1(O)C(=O)OCc2c1cc1n(c2=O)Cc2cc3c(CN(C)C)c(O)ccc3nc2-1 was tested, and the IC50 (second compound 0.003 µM) was 0.055 µM, the IC50 (second compound 0.00949 µM) was 0.0523 µM and the IC50 (second compound 0.03 µM) was less than 0.00949 µM. It also gave an IC50 (second compound 0.0949 µM) of less than 0.00949 µM, an IC50 (second compound 0.3 µM) of less than 0.00949 µM and a viability, T/C (second compound 0.003 µM, first compound 0.00949 µM) of 90.7%. For the same compound, the viability, T/C (second compound 0.003 µM, first compound 0.03 µM) was 67.6%, the viability, T/C (second compound 0.003 µM, first compound 0.0949 µM) was 35% and the viability, T/C (second compound 0.003 µM, first compound 0.3 µM) was 7.09%. For the same compound, the viability, T/C (second compound 0.003 µM, first compound 0.949 µM) was 2.44%, the viability, T/C (second compound 0.003 µM, first compound 3 µM) was 1.89% and the viability, T/C (second compound 0.00949 µM, first compound 0.00949 µM) was 78.9%. For the same compound, the viability, T/C (second compound 0.00949 µM, first compound 0.03 µM) was 68.7%, the viability, T/C (second compound 0.00949 µM, first compound 0.0949 µM) was 30% and the viability, T/C (second compound 0.00949 µM, first compound 0.3 µM) was 9.43%. The viability, T/C (second compound 0.00949 µM, first compound 0.949 µM) was 2.81%, the viability, T/C (second compound 0.00949 µM, first compound 3 µM) was 2.08% and the viability, T/C (second compound 0.03 µM, first compound 0.00949 µM) was 36%. The viability, T/C (second compound 0.03 µM, first compound 0.03 µM) was 24.5%, the viability, T/C (second compound 0.03 µM, first compound 0.0949 µM) was 20.9% and the viability, T/C (second compound 0.03 µM, first compound 0.3 µM) was 8.2%. It also gave a viability, T/C (second compound 0.03 µM, first compound 0.949 µM) of 2.92%, a viability, T/C (second compound 0.03 µM, first compound 3 µM) of 1.49% and a viability, T/C (second compound 0.0949 µM, first compound 0.00949 µM) of 6.49%. The viability, T/C (second compound 0.0949 µM, first compound 0.03 µM) was 7.18%, the viability, T/C (second compound 0.0949 µM, first compound 0.0949 µM) was 5.96% and the viability, T/C (second compound 0.0949 µM, first compound 0.3 µM) was 2%. The viability, T/C (second compound 0.0949 µM, first compound 0.949 µM) was 1.05%, the viability, T/C (second compound 0.0949 µM, first compound 3 µM) was 1.03% and the viability, T/C (second compound 0.3 µM, first compound 0.00949 µM) was 2.2%. The viability, T/C (second compound 0.3 µM, first compound 0.03 µM) was 1.82%, the viability, T/C (second compound 0.3 µM, first compound 0.0949 µM) was 1.38% and the viability, T/C (second compound 0.3 µM, first compound 0.3 µM) was 1.33%. It also gave a viability, T/C (second compound 0.3 µM, first compound 0.949 µM) of 0.79% and a viability, T/C (second compound 0.3 µM, first compound 3 µM) of 0.59%.
